Results from ChEMBL document CHEMBL1201862, “PubChem BioAssay data set” (2004).
Several values for one entry are separate records, joined by “and”; a condition that tells them apart may be missing. Equal values may be shown once. Activity calls are given as the source filed them.

Experiments:
[1] = inhibitors of Vif binding to APOBEC3G peptide, primary screen, biochemical, TR-FRET, GST-Vif 1-94, biotin-A3G peptide, dose response retest (AID 1117319); type: functional;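 note: TR-FRET signal of purified GST-Vif binding a biotinylated A3G peptide; inhibitors lower the FRET signal by blocking Vif and A3G binding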
[2] = Artemis endonuclease inhibitor potency, dose response, biochemical, fluorescence intensity (AID 720701); type: functional;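 note: Artemis endonuclease enzyme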
Estrogen receptor beta = Estrogen receptor beta (Homo sapiens, UniProt Q92731);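 note: recombinant ER-beta bound to coactivator SRC1 peptide in presence of estradiol agonist; inhibitors block coactivator peptide binding and lower the FRET signal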
[3] = non-specific cell cytotoxicity, dose response, cytotoxicity control for PAX8 inhibitor project, plate reader, dry powder samples (AID 743021); type: functional, cell-based
INS1 = assay: beta cell apoptosis inhibitors, cytokine rescue, dose response, luminescence, retest (AID 449756); type: functional, cell-based; details: Rattus norvegicus;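 note: cell death triggered by IL-1 beta plus TNF-alpha plus IFN-gamma mixture; protective hits raise ATP signal compared with cytokine alone wells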
BJ = assay: cytotoxicity toward Ras-transformed BJeLR fibroblasts, dose response, cell-based, alamar blue fluorescence, cherrypicked samples (AID 2631); type: functional; details: Homo sapiens;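 note: confirmatory dose-response assay in RAS-dependent BJ fibroblasts engineered with TERT, LT and ST, with cytotoxicity read by fluorescence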
Paired box protein Pax-8 = Paired box protein Pax-8 (Homo sapiens, UniProt Q06710); assay: inhibitors of PAX8-driven TPO luciferase reporter, dose response, RMG-I cells, cherry-pick (AID 687027); type: functional, cell-based;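 note: luciferase reporter driven by Pax8 target thyroperoxidase promoter measured by SteadyGlo luminescence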
[4] = NIH-3T3 fibroblast cytotoxicity, dose response, cytotoxicity control, cell-based, fluorescence, Alamar Blue, secondary assay (AID 2327); type: functional;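 note: NIH-3T3 mouse fibroblasts cultured with fluconazole at 8 µg/mL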
[5] = target: E3 ubiquitin-protein ligase Mdm2 (Homo sapiens, UniProt Q00987); assay: enhancers of MDM2-luciferase reporter signal, concentration-effect titration, project on inhibitors of MDM2 ubiquitin ligase, cellular assay, luminescent readout, 384-well plate format (AID 1394); type: functional;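 note: MDM2 E3 inhibitors raise luminescence so EC50 is for signal enhancement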
[6] = M. tuberculosis growth inhibition, HTS (AID 449762); type: functional
[7] = Luminescence Cell-Based Dose Confirmation HTS to Identify Inhibitors of Platelet Dense Granule Release. [Related pubchem assays: 1663 (Primary HTS), 1678 (Summary of Project)]; type: functional
[8] = Fluorescence Cell-Based Dose Response to Identify Inhibitors of Thrombin Receptor-Activating Peptide SFLLRN-Mediated P-Selectin Induction on Platelets. [Related pubchem assays: 1663 (Primary HTS), 1889 (retest at dose ), 1891 (counterscreen), 1678 (Project Summary)]; type: functional
[9] = target: Luciferin 4-monooxygenase (Photinus pyralis, UniProt P08659); assay: firefly luciferase enzyme inhibitors, dose response, biochemical, luminescence (AID 1891)
Bcl-2-related protein A1 [10] = target: T1, Bcl-2-related protein A1 (Mus musculus, UniProt Q07440); assay: Bfl-1 inhibitors blocking BH3 peptide binding, confirmation, biochemical, TR-FRET, mouse Bfl-1 (AID 621);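 note: TR-FRET binding of GST-Bfl-1 to FITC-labelled Bid peptide via terbium antibody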
T1 sequence (Q07440 whole entry): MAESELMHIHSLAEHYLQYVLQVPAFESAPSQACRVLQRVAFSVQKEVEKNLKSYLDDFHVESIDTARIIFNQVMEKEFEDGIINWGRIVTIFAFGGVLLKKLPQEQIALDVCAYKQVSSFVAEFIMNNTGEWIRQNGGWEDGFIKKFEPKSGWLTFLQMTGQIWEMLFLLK

Bcl-2-related protein A1 [11] = target: T1, Bcl-2-related protein A1; assay: Bfl-1 inhibitors, primary screen, biochemical, fluorescence polarization, FITC-Bid, mouse (AID 432)
Bcl-2-related protein A1 [12] = target: T1, Bcl-2-related protein A1; assay: Bfl-1 binding inhibitors, SAR follow-up, biochemical, fluorescence polarization (AID 1070)
[13] = target: Glyceraldehyde-3-phosphate dehydrogenase (Homo sapiens, UniProt P04406)
[14] = target: NAD-dependent protein deacylase sirtuin-5, mitochondrial (Homo sapiens, UniProt Q9NXA8); assay: SIRT5 desuccinylase inhibitors, dose response, biochemical, fluorescence imaging, cherry-pick, set 5 (AID 720591);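 note: desuccinylation of succinyl peptide AMC substrate read as fluorescence after trypsin release; potency of inhibitors that lower fluorescence and may act on trypsin instead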
[15] = cytotoxicity in OV-90 ovarian cancer cells, dose response, PAX8 inhibitor project, cell-based, plate reader, dry powder, SA8 (AID 743149); type: functional
[16] = PAX5 activity inhibitors, dose response, selectivity assay for PAX8 inhibitor project, cell-based, plate reader, dry powder samples (AID 743047); type: functional;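 note: HEK293 cells carrying a Pax5 driven CD19 promoter luciferase reporter; potency of inhibitors that lower reporter luminescence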
[17] = IGROV1 ovarian cancer cell cytotoxicity, dose response, PAX8 inhibitor project, plate reader, dry powder samples (AID 743043); type: functional, cell-based; details: IGROV-1
[18] = NIH:OVCAR-3 ovarian cancer cell cytotoxicity, dose response, PAX8 inhibitor project, plate reader, dry powder samples (AID 743044); type: functional, cell-based
[19] = cytotoxicity in OVCAR8 ovarian cancer cells, dose response, PAX8 project, cell-based, plate reader, dry powder samples (AID 743197); type: functional; details: OVCAR-8
[20] = cytotoxicity in COV434 cells, dose response, cytotoxicity control for PAX8 inhibitor project, cell-based, plate reader, dry powder, SA7 (AID 743145); type: functional
[21] = cytotoxicity in OVCAR4 cells, dose response, cytotoxicity control for PAX8 inhibitor project, cell-based, plate reader, dry powder, SA11 (AID 743150); type: functional; details: OVCAR-4
[22] = cytotoxicity in COV362 ovarian cancer cells, dose response, cytotoxicity control for PAX8 inhibitor project, cell-based, plate reader, dry powder, SA12 (AID 743144); type: functional
[23] = cytotoxicity dependent on PAX8, dose response, cell-based, plate reader, dry powder (AID 743049); type: functional

Paired box protein Pax-8, sequence (Q06710 whole entry): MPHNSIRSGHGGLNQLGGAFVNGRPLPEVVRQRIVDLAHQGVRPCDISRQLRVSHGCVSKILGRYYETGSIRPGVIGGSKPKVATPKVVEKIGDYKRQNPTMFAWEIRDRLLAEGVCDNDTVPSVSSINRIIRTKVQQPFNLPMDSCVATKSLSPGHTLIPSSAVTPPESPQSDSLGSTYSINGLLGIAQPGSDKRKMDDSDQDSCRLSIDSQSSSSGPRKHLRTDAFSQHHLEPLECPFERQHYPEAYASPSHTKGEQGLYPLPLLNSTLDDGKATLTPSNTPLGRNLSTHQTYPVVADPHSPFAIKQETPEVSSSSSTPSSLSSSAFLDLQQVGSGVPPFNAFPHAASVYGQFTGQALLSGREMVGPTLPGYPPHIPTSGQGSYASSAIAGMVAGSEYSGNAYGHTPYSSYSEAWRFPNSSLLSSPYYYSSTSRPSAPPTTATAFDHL
NAD-dependent protein deacylase sirtuin-5, mitochondrial, sequence (Q9NXA8 whole entry): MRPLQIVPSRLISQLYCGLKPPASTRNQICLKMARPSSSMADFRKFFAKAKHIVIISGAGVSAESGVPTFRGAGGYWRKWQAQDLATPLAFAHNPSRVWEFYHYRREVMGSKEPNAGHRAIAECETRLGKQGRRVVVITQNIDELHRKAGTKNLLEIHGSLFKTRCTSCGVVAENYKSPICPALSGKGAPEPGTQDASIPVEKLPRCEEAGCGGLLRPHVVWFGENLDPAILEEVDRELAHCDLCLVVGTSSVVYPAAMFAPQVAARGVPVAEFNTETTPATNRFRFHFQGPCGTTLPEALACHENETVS
Luciferin 4-monooxygenase, sequence (P08659 whole entry): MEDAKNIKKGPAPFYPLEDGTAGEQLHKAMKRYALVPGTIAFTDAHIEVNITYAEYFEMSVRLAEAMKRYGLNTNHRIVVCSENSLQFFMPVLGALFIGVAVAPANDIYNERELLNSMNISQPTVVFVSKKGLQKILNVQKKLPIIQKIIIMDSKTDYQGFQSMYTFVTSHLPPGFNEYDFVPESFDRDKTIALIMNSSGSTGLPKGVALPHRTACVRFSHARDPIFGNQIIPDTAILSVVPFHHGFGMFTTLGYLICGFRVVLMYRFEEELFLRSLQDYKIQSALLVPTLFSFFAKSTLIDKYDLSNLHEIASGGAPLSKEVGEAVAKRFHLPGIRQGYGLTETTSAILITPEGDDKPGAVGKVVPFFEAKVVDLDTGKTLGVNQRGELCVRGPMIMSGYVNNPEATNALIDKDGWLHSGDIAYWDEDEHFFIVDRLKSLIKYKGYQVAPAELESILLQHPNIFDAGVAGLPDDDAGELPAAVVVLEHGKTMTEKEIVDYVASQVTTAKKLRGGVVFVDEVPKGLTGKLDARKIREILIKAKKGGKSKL
Estrogen receptor beta, sequence (Q92731 whole entry): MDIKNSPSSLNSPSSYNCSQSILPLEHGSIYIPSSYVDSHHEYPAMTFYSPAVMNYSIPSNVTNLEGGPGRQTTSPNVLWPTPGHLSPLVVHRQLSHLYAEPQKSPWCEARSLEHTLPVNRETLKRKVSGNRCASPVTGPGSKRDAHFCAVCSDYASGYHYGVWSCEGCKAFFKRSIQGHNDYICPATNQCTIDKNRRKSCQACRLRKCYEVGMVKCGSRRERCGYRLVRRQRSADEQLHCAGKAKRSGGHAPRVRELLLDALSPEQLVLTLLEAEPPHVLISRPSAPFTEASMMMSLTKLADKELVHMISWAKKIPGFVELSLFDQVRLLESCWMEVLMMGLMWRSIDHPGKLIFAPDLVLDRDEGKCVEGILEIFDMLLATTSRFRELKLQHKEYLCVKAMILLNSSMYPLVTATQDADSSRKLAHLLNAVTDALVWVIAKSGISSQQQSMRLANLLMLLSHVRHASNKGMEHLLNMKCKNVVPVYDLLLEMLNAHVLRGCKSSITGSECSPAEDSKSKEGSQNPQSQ
Glyceraldehyde-3-phosphate dehydrogenase, sequence (P04406 whole entry): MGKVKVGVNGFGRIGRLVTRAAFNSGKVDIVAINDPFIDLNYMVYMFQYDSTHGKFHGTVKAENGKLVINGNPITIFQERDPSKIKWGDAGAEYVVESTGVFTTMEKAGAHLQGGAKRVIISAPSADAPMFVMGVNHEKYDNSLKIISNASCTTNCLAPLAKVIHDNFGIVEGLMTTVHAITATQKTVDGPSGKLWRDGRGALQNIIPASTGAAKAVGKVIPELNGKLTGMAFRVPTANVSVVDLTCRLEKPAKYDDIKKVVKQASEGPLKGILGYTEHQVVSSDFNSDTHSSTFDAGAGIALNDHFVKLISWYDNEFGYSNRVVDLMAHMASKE
E3 ubiquitin-protein ligase Mdm2, sequence (Q00987 whole entry): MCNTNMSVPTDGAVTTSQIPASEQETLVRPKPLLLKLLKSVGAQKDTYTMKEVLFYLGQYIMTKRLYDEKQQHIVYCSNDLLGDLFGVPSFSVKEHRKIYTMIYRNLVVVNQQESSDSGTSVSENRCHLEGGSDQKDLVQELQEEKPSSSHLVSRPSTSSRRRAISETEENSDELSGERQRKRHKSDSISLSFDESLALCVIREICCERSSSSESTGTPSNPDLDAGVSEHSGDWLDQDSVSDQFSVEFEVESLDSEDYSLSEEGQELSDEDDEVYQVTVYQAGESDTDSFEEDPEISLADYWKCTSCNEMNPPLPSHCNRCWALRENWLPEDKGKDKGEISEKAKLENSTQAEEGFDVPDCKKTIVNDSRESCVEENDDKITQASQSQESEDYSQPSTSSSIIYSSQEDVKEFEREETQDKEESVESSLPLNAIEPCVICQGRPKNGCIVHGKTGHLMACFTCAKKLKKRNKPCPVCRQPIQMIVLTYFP

COc1ccc(NC(=O)CSc2nc3c(cc2C#N)CN(C)CC3)cc1
IC50 [1]: > 100 µM (active) | IC50 [2]: > 20 µM (inactive) | IC50 (Estrogen receptor beta): > 50 µM (not active)

CC(=O)/C=C/n1c(=S)oc2ccccc21
AC50 [3]: 10 µM (active) | AC50 (INS1): 8.12 µM (active) | EC50 (BJ): 0.508 µM (inconclusive) | AC50 (Paired box protein Pax-8): 5.95 µM (active) | EC50 [4]: 3.97 µM (inconclusive) | EC50 [5]: 0.01 µM (not active)

Nc1ccc2c(c1)oc1ccccc12
IC50 [6]: > 100 µM (active)

COC(=O)c1ccccc1NC(=O)Nc1ccc2c(c1)OCO2
EC50 [7]: 5.7 µM (active) | EC50 [8]: < 100 µM (not active) | EC50 [9]: > 112 µM (not active)

COc1ccccc1C(=O)C1Nc2ccccc2-c2nnc(SC)nc2O1 (stereo not drawn)
IC50 (Bcl-2-related protein A1 [10]): > 100 µM (not active) and 4.6 µM (active) | IC50 (Bcl-2-related protein A1 [11]): 4.79 µM (active) | IC50 (Bcl-2-related protein A1 [12]): > 100 µM (not active) | IC50 [13]: > 100 µM (not active)

CC(=O)CSc1nnc(-c2ccco2)n1-c1ccccc1
AC50 [14]: > 30 µM (inactive)

CN(C[C@H]1N[C@@H](CO)[C@@H]1c1ccc(C2=CCCC2)cc1)C(=O)c1ccncc1
AC50 [15]: 47.5 µM (active) | AC50 [16]: > 32 µM (inactive) | AC50 [17]: 16.2 µM (active) | AC50 (Paired box protein Pax-8): 6.17 µM (active) | AC50 [18]: 10.9 µM (active) | AC50 [19]: 17.5 µM (active) | AC50 [20]: 19.3 µM (active) | AC50 [21]: 16.2 µM (active) | AC50 [22]: 21.1 µM (active) | AC50 [23]: 16.3 µM (active)
